For 33 molecules, IC50 results are on record in US20130303509A1, “NAMPT INHIBITORS” (AbbVie Inc., priority 2012, published 2013).

Structures are written as SMILES.

For this experiment, the system named is PC3 cells. The experiment is described as follows: NAMPT Cell Proliferation Assay. In kind it is cell-based. To be noted: Homo sapiens, PC-3, 120 h, 5 days incubation, cell viability by Cell Titer Glo. Summed up:
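Five-day CellTiter-Glo viability readout in PC3 cells grown in RPMI/10% heat-inactivated FBS. Compounds added after overnight attachment as a 10-fold dilution series, […]. Percent inhibition fitted to sigmoidal dose-response to derive IC50.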

Molecule `O=C(Nc1ccc(C2CCN(C(=O)c3ccccc3F)CC2)cc1)[C@@H]1CCN(c2cccnn2)C1` [Example 794, (3R)—N-{4-[1-(2-fluorobenzoyl)piperidin-4-yl]phenyl}-1-(pyridazin-3-yl)pyrrolidine-3-carboxamide] registered an IC50 of 196 nM. The same measure for `CC(C)(C)C(=O)N1CCC(c2ccc(NC(=O)[C@@H]3CCN(c4cccnn4)C3)cc2)CC1` [Example 795, (3R)—N-{4-[1-(2,2-dimethylpropanoyl)piperidin-4-yl]phenyl}-1-(pyridazin-3-yl)pyrrolidine-3-carboxamide]: 773 nM. To `O=C(Nc1ccc(OC2CCN(C(=O)C3CCCCC3)CC2)cc1)[C@H]1CCN(c2cccnn2)C1` [Example 796, (3S)—N-(4-{[1-(cyclohexylcarbonyl)piperidin-4-yl]oxy}phenyl)-1-(pyridazin-3-yl)pyrrolidine-3-carboxamide] belongs 11.7 nM. To `O=C(Nc1ccc(OC2CCN(C(=O)c3ccccc3F)CC2)cc1)[C@H]1CCN(c2cccnn2)C1` [Example 797, (3S)-N-(4-{[1-(2-fluorobenzoyl)piperidin-4-yl]oxy}phenyl)-1-(pyridazin-3-yl)pyrrolidine-3-carboxamide] belongs 12.6 nM; to `O=C(Nc1ccc(OC2CCN(C(=O)c3cccc(F)c3)CC2)cc1)[C@H]1CCN(c2cccnn2)C1` [Example 798, (3S)-N-(4-{[1-(3-fluorobenzoyl)piperidin-4-yl]oxy}phenyl)-1-(pyridazin-3-yl)pyrrolidine-3-carboxamide], 66.4 nM.

Molecule `O=C(Nc1ccc(OC2CCN(C(=O)c3ccccc3)CC2)cc1)[C@H]1CCN(c2cccnn2)C1` [Example 799, (3S)-N-{4-[(1-benzoylpiperidin-4-yl)oxy]phenyl}-1-(pyridazin-3-yl)pyrrolidine-3-carboxamide] came in with an IC50 of 25.5 nM. The same measure for `O=C(Nc1ccc(OC2CCN(C(=O)c3ccc(F)cc3)CC2)cc1)[C@H]1CCN(c2cccnn2)C1` [Example 800, (3S)-N-(4-{[1-(4-fluorobenzoyl)piperidin-4-yl]oxy}phenyl)-1-(pyridazin-3-yl)pyrrolidine-3-carboxamide]: 60 nM. The same measure for `CC(C)(C)C(=O)N1CCC(Oc2ccc(NC(=O)[C@H]3CCN(c4cccnn4)C3)cc2)CC1` [Example 801, (3S)-N-(4-{[1-(2,2-dimethylpropanoyl)piperidin-4-yl]oxy}phenyl)-1-(pyridazin-3-yl)pyrrolidine-3-carboxamide]: 24.6 nM; for `CC1CC1C(=O)N1CCC(Oc2ccc(NC(=O)[C@H]3CCN(c4cccnn4)C3)cc2)CC1` (stereo partly drawn) [Example 802, (3S)-N-[4-({1-[(2-methylcyclopropyl)carbonyl]piperidin-4-yl}oxy)phenyl]-1-(pyridazin-3-yl)pyrrolidine-3-carboxamide]: 26.3 nM; for `CC(C)(C)Cc1nnc(-c2ccc(NC(=O)C3CN(c4cccnn4)C3)cc2)o1` [Example 803, N-{4-[5-(2,2-dimethylpropyl)-1,3,4-oxadiazol-2-yl]phenyl}-1-(pyridazin-3-yl)azetidine-3-carboxamide]: 1.61 nM. To `CC(C)(C)Cn1cnc(-c2ccc(NC(=O)C3CN(c4cccnn4)C3)cc2)c1` [Example 804, N-{4-[1-(2,2-dimethylpropyl)-1H-imidazol-4-yl]phenyl}-1-(pyridazin-3-yl)azetidine-3-carboxamide] belongs 7.92 nM. In turn, `Cn1nc(C2CC2)cc1-c1ccc(NC(=O)C2CN(c3cccnn3)C2)cc1` [Example 805, N-[4-(3-cyclopropyl-1-methyl-1H-pyrazol-5-yl)phenyl]-1-(pyridazin-3-yl)azetidine-3-carboxamide] came in with an IC50 of 65 nM. To `CC(C)(C)Cc1nc(-c2ccc(NC(=O)C3CN(c4cccnn4)C3)cc2)no1` [Example 806, N-{4-[5-(2,2-dimethylpropyl)-1,2,4-oxadiazol-3-yl]phenyl}-1-(pyridazin-3-yl)azetidine-3-carboxamide] belongs 3.13 nM. To `COCCn1nc(C2CC2)cc1-c1ccc(NC(=O)C2CN(c3cccnn3)C2)cc1` [Example 807, N-{4-[3-cyclopropyl-1-(2-methoxyethyl)-1H-pyrazol-5-yl]phenyl}-1-(pyridazin-3-yl)azetidine-3-carboxamide] belongs 4.15 nM; to `CC(C)(C)OC(=O)N1CCC(c2ccc(C(=O)NC3CN(c4cccnn4)C3)s2)CC1` [Example 808, tert-butyl 4-(5-{[1-(pyridazin-3-yl)azetidin-3-yl]carbamoyl}thiophen-2-yl)piperidine-1-carboxylate], 41.1 nM; to `CC(C)(C)OC(=O)N1CCC(F)(c2ccc(NC(=O)C3CN(c4cccnn4)C3)cc2)CC1` [Example 809, tert-butyl 4-fluoro-4-[4-({[1-(pyridazin-3-yl)azetidin-3-yl]carbonyl}amino)phenyl]piperidine-1-carboxylate], 2.4 nM.

The molecule `O=C(NC1CN(c2cccnn2)C1)c1ccc(C2CCN(C(=O)c3ccccc3)CC2)s1` [Example 810, 5-(1-benzoylpiperidin-4-yl)-N-[1-(pyridazin-3-yl)azetidin-3-yl]thiophene-2-carboxamide] came in with an IC50 of 61.1 nM. Turning to `O=C(NC1CN(c2cccnn2)C1)c1ccc(C2CCN(C(=O)c3ccccc3F)CC2)s1` [Example 811, 5-[1-(2-fluorobenzoyl)piperidin-4-yl]-N-[1-(pyridazin-3-yl)azetidin-3-yl]thiophene-2-carboxamide], the IC50 amounted to 11 nM. To `Cc1ccccc1C(=O)N1CCC(c2ccc(C(=O)NC3CN(c4cccnn4)C3)s2)CC1` [Example 812, 5-[1-(2-methylbenzoyl)piperidin-4-yl]-N-[1-(pyridazin-3-yl)azetidin-3-yl]thiophene-2-carboxamide] belongs 10.2 nM; to `O=C(NC1CN(c2cccnn2)C1)c1ccc(C2CCN(C(=O)c3ccc(F)cc3F)CC2)s1` [Example 813, 5-[1-(2,4-difluorobenzoyl)piperidin-4-yl]-N-[1-(pyridazin-3-yl)azetidin-3-yl]thiophene-2-carboxamide], 78.6 nM. The same measure for `O=C(NC1CN(c2cccnn2)C1)c1ccc(C2CCN(C(=O)c3cccc(F)c3)CC2)s1` [Example 814, 5-[1-(3-fluorobenzoyl)piperidin-4-yl]-N-[1-(pyridazin-3-yl)azetidin-3-yl]thiophene-2-carboxamide]: 81.9 nM; for `O=C(NC1CN(c2cccnn2)C1)c1ccc(C2CCN(C(=O)c3ccc(F)cc3)CC2)s1` [Example 815, 5-[1-(4-fluorobenzoyl)piperidin-4-yl]-N-[1-(pyridazin-3-yl)azetidin-3-yl]thiophene-2-carboxamide]: 185 nM.

For `O=C(NC1CN(c2cccnn2)C1)c1ccc(C2CCN(C(=O)c3cc(F)cc(F)c3)CC2)s1` [Example 816, 5-[1-(3,5-difluorobenzoyl)piperidin-4-yl]-N-[1-(pyridazin-3-yl)azetidin-3-yl]thiophene-2-carboxamide], inhibition was half-maximal at 188 nM (IC50).

Molecule `O=C(Nc1ccc(-c2cc(C3CC3)nn2CCO)cc1)C1CN(c2cccnn2)C1` [Example 817, N-{4-[3-cyclopropyl-1-(2-hydroxyethyl)-1H-pyrazol-5-yl]phenyl}-1-(pyridazin-3-yl)azetidine-3-carboxamide] gave an IC50 of 64.1 nM.

`O=C(Nc1ccc(C2CCN(C(=O)c3ccccc3)CC2)cc1)C1CN(c2ccc(F)nn2)C1` [Example 818, N-[4-(1-benzoylpiperidin-4-yl)phenyl]-1-(6-fluoropyridazin-3-yl)azetidine-3-carboxamide] yielded an IC50 of 29.4 nM. To `O=C(Nc1ccc(C2CCN(C(=O)c3ccccc3F)CC2)cc1)C1CN(c2ccc(F)nn2)C1` [Example 819, N-{4-[1-(2-fluorobenzoyl)piperidin-4-yl]phenyl}-1-(6-fluoropyridazin-3-yl)azetidine-3-carboxamide] belongs 8.56 nM; to `CC(C)(C)C(=O)N1CCC(c2ccc(NC(=O)C3CN(c4ccc(F)nn4)C3)cc2)CC1` [Example 820, N-{4-[1-(2,2-dimethylpropanoyl)piperidin-4-yl]phenyl}-1-(6-fluoropyridazin-3-yl)azetidine-3-carboxamide], 75.4 nM; to `CC(C)C(=O)N1CCC(c2ccc(NC(=O)C3CN(c4ccc(F)nn4)C3)cc2)CC1` [Example 821, 1-(6-fluoropyridazin-3-yl)-N-{4-[1-(2-methylpropanoyl)piperidin-4-yl]phenyl}azetidine-3-carboxamide], 165 nM. As to `CCC(CC)C(=O)N1CCC(c2ccc(NC(=O)C3CN(c4ccc(F)nn4)C3)cc2)CC1` [Example 822, N-{4-[1-(2-ethylbutanoyl)piperidin-4-yl]phenyl}-1-(6-fluoropyridazin-3-yl)azetidine-3-carboxamide], the IC50 was 60.5 nM. The same measure for `O=C(Nc1ccc(C2CCN(C(=O)c3ccc(F)cc3)CC2)cc1)C1CN(c2ccc(F)nn2)C1` [Example 823, N-{4-[1-(4-fluorobenzoyl)piperidin-4-yl]phenyl}-1-(6-fluoropyridazin-3-yl)azetidine-3-carboxamide]: 247 nM. To `O=C(Nc1ccc(O[C@H]2CCN(C(=O)c3ccccc3)C2)cc1)[C@H]1CCN(c2cccnn2)C1` [Example 824, (3S)—N-(4-{[(3S)-1-benzoylpyrrolidin-3-yl]oxy}phenyl)-1-(pyridazin-3-yl)pyrrolidine-3-carboxamide] belongs 70.6 nM; to `O=C(Nc1ccc(O[C@H]2CCN(C(=O)c3ccccc3F)C2)cc1)[C@H]1CCN(c2cccnn2)C1` [Example 825, (3S)—N-(4-{[(3S)-1-(2-fluorobenzoyl)pyrrolidin-3-yl]oxy}phenyl)-1-(pyridazin-3-yl)pyrrolidine-3-carboxamide], 62.3 nM; to `O=C(Nc1ccc(O[C@H]2CCN(C(=O)c3cc(F)cc(F)c3)C2)cc1)[C@H]1CCN(c2cccnn2)C1` [Example 826, (3S)—N-(4-{[(3S)-1-(3,5-difluorobenzoyl)pyrrolidin-3-yl]oxy}phenyl)-1-(pyridazin-3-yl)pyrrolidine-3-carboxamide], 98.3 nM.
